# Assay results as given in US5852011A, “Benzimidazole derivatives” (Mitsui Chemicals, Inc., priority 1994, dated 1998).
# Counter-ions that a name gives are not always drawn.
# System: mouse B16 melanoma cells
# Assay: In vitro inhibition of proliferation of tumored cells, mouse B16 melanoma (Test 2)
# Type: cell-based
# Settings: 3 days in 5% CO2 at 37° C., 96-well plate
# Protocol: A description will next be made of antitumor activities of these compounds. Their antitumor activities were determined by measuring their in vitro inhibition of proliferation of tumored cells. Namely, mouse B16 melanoma cells were spread over a 96-well culture plate. One day later, each drug was applied. The melanoma cells were then incubated for 3 days in 5% CO2 at 37° C. Following the method reported in Cancer Res., 48, 589-601(1988), the concentration of the drug required to induce 50% inhibition on the proliferation was determined. As a comparative example, the results obtained from the application of distamycin are also shown.
row,SMILES,50% Inhibition
1,"Cn1cc(NC(=O)CC[S+](C)C)cc1-c1nc2cc(C(=O)Nc3ccc(N(CCCl)CCCl)c(F)c3)ccc2[nH]1 [1076 (Cl' salt), 2-[N-[1-Methyl-2-[5-[N-[3-fluoro-4-[N,N-bis(2-chloroethyl)amino]phenyl]]carbamoyl]-1H-benzimidazol-2-ylpyrrol-4-yl]carbamoylethyl-dimethylsulfonium chloride]",0.45 µg/mL
2,"Cn1cc(NC(=O)CCc2ccc(N(CCCl)CCCl)cc2)cc1-c1nc2cc(C(=O)NCCC(=N)N)ccc2[nH]1 [Compound 3, 1H-2-[4-[3-[4-[N,N-Bis(2-chloroethyl)amino]phenyl]propionylamino]-1-methylpyrrol-2-yl]benzimidazole-5-[N-(2-amidinoethyl)]carboxamide hydrochloride]",0.019 µg/mL
3,"Cn1cc(NC(=O)c2ccc(CN(CCCl)CCCl)cc2)cc1-c1nc2cc(C(=O)NCCC(=N)N)ccc2[nH]1 [Compound 14, 1H-2-[4-[4-[N,N-Bis(2-chloroethyl)aminomethyl]benzoylamino]-1-methylpyrrol-2-yl]benzimidazole-5-(N-(2-amidinoethyl)]carboxamide hydrochloride]",0.57 µg/mL
4,"Cn1cc(NC(=O)c2cccc(N(CCCl)CCCl)c2)cc1-c1nc2cc(C(=O)NCCC(=N)N)ccc2[nH]1 [Compound 15, 1H-2-[4-[3-[N,N-bis(2-chloroethyl)amino]benzoylamino]-1-methylpyrrol-2-yl]benzimidazole-5-[N-(2-amidinoethyl)]carboxamide hydrochloride]",0.057 µg/mL
5,"Cn1cc(NC(=O)c2ccc(N(CCCl)CCCl)cc2)cc1-c1nc2cc(C(=O)NCCN)ccc2[nH]1 [Compound 129, 1H-2-[4-[4-[N,N-Bis(2-chloroethyl)amino]benzoylamino]-1-methylpyrrol-2-yl]benzimidazole-5-[N-(2-aminoethyl)]carboxamide hydrochloride]",0.18 µg/mL
6,"Cn1cc(NC(=O)c2ccc(N(CCCl)CCCl)cc2)cc1-c1nc2cc(C(=O)NCc3cccnc3)ccc2[nH]1 [Compound 223, 1H-2-[4-[4-[N,N-Bis(2-chloroethyl)amino]benzoylamino]-1-methylpyrrol-2-yl]benzimidazole-5-[N-(3-picolyl)]carboxamide hydrochloride]",1.1 µg/mL
7,"Cn1cc(NC(=O)c2ccc(N(CCCl)CCCl)cc2)cc1-c1nc2cc(C(=O)NCc3ccc[n+](C)c3)ccc2[nH]1 [Compound 247, 3-[[1H-2-[4-[4-[N,N-Bis(2-chloroethyl)amino]-benzoylamino]-1-methylpyrrol-2-yl]benzimidazole-5-carboxamido]methyl]-1-methylpyridinium chloride]",2.6 µg/mL
8,"Cn1cc(NC(=O)c2ccc(N(CCBr)CCBr)cc2)cc1-c1nc2cc(C(=O)NCCC(=N)N)ccc2[nH]1 [Compound 260, 1H-2-[4-[4-[N,N-Bis(2-bromoethyl)amino]benzoylamino]-1-methylpyrrol-2-yl]benzimidazole-5-[N-(2-amidinoethyl)]carboxamide hydrochloride]",0.034 µg/mL
9,"CCCCNC(=O)c1ccc2[nH]c(-c3cc(NC(=O)c4ccc(N(CCCl)CCCl)cc4)cn3C)nc2c1 [Compound 336, 1H-2-[4-[4-[N,N-Bis(2-chloroethyl)amino]benzoylamino]-1-methylpyrrol-2-yl]benzimidazole-5-(N-butyl)carboxamide]",0.24 µg/mL

# Same assay, conditions: Mus musculus, B16, 72 h; 3 days in 5% CO2 at 37° C., 96-well plate; read-out: 50% Inhibition
row,SMILES,IC50
1,"Cn1cc(NC(=O)CCCCCBr)cc1-c1nc2cc(C(=O)NCCC(=N)N)ccc2[nH]1 [Compound 16, hydrochloride]",0.6 µg/mL
2,"Cn1cc(NC(=O)c2ccccc2)cc1-c1nc2cc(C(=O)NCCC(=N)N)ccc2[nH]1 [Compound 326, 1H-2-(4-Benzoylamino-1-methylpyrrol-2-yl)benzimidazole-5-[N-(2-amidinoethyl)]carboxamide hydrochloride]",12 µg/mL
